We go through two molecules from patent publication USRE39420E1, “1,2-Diphenylpyrrole derivatives, their preparation and their therapeutic uses” (Sankyo Company, Limited, priority 1996, dated 2006).

Test [1] relates to IL-1β production in human peripheral monocytes. As to the kind of experiment: Inhibitory effect on IL-1β production in LPS-stimulated human peripheral monocytes. In kind it is cell-based. As to conditions: Monocyte, LPS 10 μg/ml, 20 hours. On the procedure:
(§1) (1) Peripheral blood was collected from healthy human volunteers in the presence of heparin. After mixing it with an equal volume of phosphate-buffered saline (PBS, Nissui Pharmaceutical), the mixture was layered onto Ficoll Paque medium (Pharmacia) at the rate of 2:1 and centrifuged at 520×g at 25° C. for 20 minutes. After centrifugation, the monocyte layer was removed and suspended in RPMI 1640 (Nissui Pharmaceutical) containing 10% fetal calf serum (FCS). The monocytes were washed once with the same medium, placed in a plastic Petri dish, pre-treated with human plasma and incubated for 2 hours in the presence of 5% CO2 to cause them to adhere to the dish. After incubation, the Petri dish was washed twice with PBS to remove the non-adherent cells. Thereafter, PBS containing 5% FCS and 0.2% EDTA was added to the Petri dish and the dish was allowed to stand undisturbed for 15 minutes at 4° C. The monocytes were recovered from the dish by pipetting. The cells were finally suspended in RPMI 1640 at a concentration of 1.25×10^5 cells/ml. (2) Culture of Human Monocytes
(§2) A 40 μl solution of the test compound and 40 μl of lipopolysaccharide (LPS; E. coli, 0.26:B6, Difco), adjusted to a final concentration of 10 μg/ml, were added to 320 μl of cell suspension. The resulting mixture was then cultured for 20 hours in the presence of 5% CO2 and the supernatant was removed at the end of cultivation to assay IL-1β and TNFα. The test compound was dissolved in dimethyl sulfoxide and diluted by a factor of 100 with FCS to reach 10 times the final concentration (the final concentrations of dimethyl sulfoxide and FCS were 0.1% and 10%, respectively).
(§3) The amount of IL-1β was measured with a commercially available ELISA kit (Cayman), after diluting the supernatant medium by a factor of 15 or 30 with the ELISA buffer. The amount of TNFα was similarly measured by a ELISA kit (Genzyme) after diluting the supernatant by a factor of 2.
(§4) The IC50 was calculated from the regression line determined by the inhibition rates and the concentrations of the test compound.

Test [2] relates to TNFα production in human peripheral monocytes. As to the kind of experiment: Inhibitory effect on TNFα production in LPS-stimulated human peripheral monocytes. Particulars: Monocyte, LPS 10 μg/ml, 20 hours. In kind it is cell-based. On the procedure:
as §1, §2, §3, §4

For test [3], the system named is scald-induced Pain in rats. As to the kind of experiment: Scald-induced pain test. Type of test: in vivo, Wistar-Imamichi rats. As to conditions: oral; pain response time, mean of 1 and 2 hours after dosing. The procedure: The test was conducted in accordance with the method of Iizuka and Tanaka [Jpn. J. Pharmacol. 70, 697, (1967)]. The test compound was administered in the same manner as in Experiment 3. Male Wistar-Imamichi rats (4-5 week old, body weights: approximately 100 g) were used after fasting for 16 hours. The right hind foot of the animal was immersed in hot water at 57° C. for 6 seconds to induce scald under ether-anesthesia. Two hours later, the scald foot of the rat was irritated by immersing in hot water at 40° C. for 5 seconds, and the animal was returned to the cage. […] Lifting up the scalded foot or licking it without coming in contact with the metal cage were considered to be pain responses. Pain response time was determined as the total time of the pain response during the 30-second observation period. […] Pain response time was again measured 1 and 2 hours after dosing and the mean value was determined. Using the mean values, inhibition rates were calculated relative to the control group. ID50 was calculated from the regression line determined by the inhibition rates and the doses.

The next test deals with yeast-induced fever. As to the kind of experiment: Antipyretic effect on yeast-induced fever. In kind it is in vivo, Wistar-Imamichi rats. As to conditions: Dose: 0.4 mg/kg, oral; mean of 1 and 2 hours after dosing. On the procedure:
The method of Roszkowski et al. [J. Pharmacol. Exp. Ther. 179, 114, (1971)] was slightly modified to perform the test. The test compound was administered in the same manner as in Experiment 3. Male Wistar-Imamichi rats (6 week old, body weights: approximately 120 g) were used in the test. Yeast (Brewer's yeast, Sigma) was suspended in physiological saline to a concentration of 25%, finely crushed in an agate mortar, and injected subcutaneously into the backs of the rats under ether-anesthesia at a volume of 2 ml/rat. The rats were fasted after the injection of yeast. On the following day (19 hours after the yeast injection), a catheter-type thermistor thermometer (Japan Koden, MGA III) was inserted approximately 5 cm into the rectum to measure the temperature of the animals. […] Rectal temperatures were measured 1 and 2 hours after administration of the test compound, and fever temperature was calculated by subtracting the normal temperature of healthy animals measured simultaneously. Inhibition rate of the group treated with the compound relative to the control group was calculated by using the mean value at 1 and 2 hours after dosing.

The test system of test [4] is yeast-inflamed pain in rats. As to the kind of experiment: Analgesic effect on yeast-inflamed pain in rats (Randall-Selitto method). Particulars: Rattus norvegicus, oral, pain threshold 0.5, 1 and 2 hours after administration, read-out: Efficacy Rate (No. of animals in which drug was effective/No. of animals used in test) (converted). In kind it is in vivo, Wistar-Imamichi rats. An outline of the steps:
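Male Wistar-Imamichi rats were fasted 16 h and given compound orally in 0.5% tragacanth. Paw inflammation was induced by subcutaneous 20% brewer's yeast, and pressure pain threshold was measured from 4.5 h at 0.5, 1 and 2 h. An animal counted as responding if its threshold exceeded twice the control mean, and efficacy rate followed Blake's method.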

As usually defined, the inhibition is the percentage by which the read-out fell short of the control. A low value points to a weak effect. For `Cc1ccc(-c2ccccc2)n1-c1ccc(S(N)(=O)=O)cc1` [Compound A, 5-methyl-2-phenyl-1-(4-sulfamoylphenyl)pyrrole, reference compound], the inhibition at 10 µM in test [1] is 24.2%; in test [2], 13.9%.
Turning to `COc1ccc(-c2cc(C)cn2-c2ccc(S(N)(=O)=O)cc2)cc1` [Example 52, 2-(4-Methoxyphenyl)-4-methyl-1-(4-sulfamoylphenyl)pyrrole], in test [3], the “ID50” value amounted to 1.1 mg/kg. The “Inhibition Rate (%)” value in the test on yeast-induced fever came out at 82%. In addition, in test [4], the responders at 12.5 mg/kg was 100%.
